Where two headings read alike, the source gives them in different places.

The test system of one assay is HIV-1 NL4-3. Kind of assay: HIV-1 infectivity assay in TZM-bl reporter cells. The assay is classed as cell-based. Particulars: for inhibition at 3 µM: Human immunodeficiency virus 1, NL43, TZM-bl, read-out: % Inhibition of HIV-1 Infectivity at 3 μM relative to ΔNef. The procedure: The antiretroviral activity of Nef inhibitor analogs was assessed using the reporter cell line, TZM-bl, which are HeLa cells engineered to express CD4, HIV-1 co-receptors, as well as an HIV-1 LTR-luciferase reporter gene. TZM-bl cells (2.5×10^4) were plated in 96-well plates and allowed to adhere overnight prior to infection. Adherent cells and HIV-1NL4-3 (typically 5,000 pg p24/ml) were then incubated separately with compounds for 3 h and combined in a final volume of 200 μl in each well. Following incubation for 48 h at 37° C., the cells were lysed in 50 μl luciferase cell culture lysis reagent (Promega). Lysates (40 μl) were then transferred to white 96-well plates followed by 50 μl injections of luciferase reagent per well (Promega). Luminescence was then recorded with a delay time of 2 s and an integration period of 10 s. Cytotoxicity of each compound in the absence of HIV-1 was evaluated in TZM-bl cells using the CellTiter-Blue cell viability assay (Promega).

A further assay has as its target T1, HIV-1 Nef NL4-3 (Human immunodeficiency virus type 1 group M subtype B, UniProt P03406, A33V/T15A/T51N/V11I).
T1 construct: Full-length recombinant Nef proteins (HIV-1 Nef-SF2, HIV-1 Nef NL4-3 and SIV Nef-mac239) were expressed in E. coli; His-6 (N); made in house; host or cells: E. coli
The assay is described as follows: SPR binding to recombinant purified Nef protein. The procedure: (§1) Interaction of inhibitor analogs with recombinant purified Nef proteins was performed using an SPR-based binding assay on a Reichert 4-channel SPR instrument. Full-length recombinant Nef proteins (HIV-1 Nef-SF2, HIV-1 Nef NL4-3 and SIV Nef-mac239) were expressed in E. coli and purified via N-terminal His-6 tags, ion-exchange chromatography, and gel filtration. Purity and identity of the Nef proteins was confirmed by SDS-PAGE and mass spectrometry. For SPR, Nef proteins were immobilized on carboxymethyl dextran biosensor chips (Reichert) in HBS-EP running buffer (10 mM HEPES, pH 7.4, 150 mM NaCl, 3 mM EDTA, 0.05% v/v Surfactant P20). Test compounds were injected in triplicate over a range of concentrations (typically 0.1 to 30 μM) at a rate of 10 μL/min for one min until equilibrium was reached, followed by dissociation in HBS-EP for 2 min. Kinetic rate constants were calculated from reference-corrected sensorgrams using the TraceDrawer software package (Reichert), and were best fit via 1:1 Langmuir or 2-step induced-fit binding models. Some initial SPR experiments were performed on a BIAcore T100 instrument (GE Healthcare) using four-channel CM5 biosensor chips, and ligand-protein interactions were best-fit using the BIAevaluations software (version 2.0.4).

The target in the next assay is T2, HIV-1 Nef-SF2 (Human immunodeficiency virus type 1 group M subtype B, UniProt P03407).
T2 construct: Full-length recombinant Nef proteins (HIV-1 Nef-SF2, HIV-1 Nef NL4-3 and SIV Nef-mac239) were expressed in E. coli; His-6 (N); made in house; host or cells: E. coli
Kind of assay: SPR binding to recombinant purified Nef protein. The procedure: as §1

For the next assay, the target named is SIV Nef-mac239 (Simian immunodeficiency virus, UniProt Q5QGG3). Kind of assay: SPR binding to recombinant purified Nef protein. On the procedure:
as §1

[1] abbreviates: HIV-1 Nef-SF2, KD, Biacore T100 instrument.
Setting [2] is: HIV-1 Nef-SF2, KD, Reichert 4-Channel instrument, N/I = No Interaction up to 1 μM.
Setting [3] is: SPR, Reichert 4-Channel instrument, N/I = No Interaction up to 1 μM.
Setting [4] is: Reichert 4-Channel instrument, N/I = No Interaction up to 1 μM.

Turning to “2-(2-methyl-5-(morpholine-4-carbonyl)phenyl)isothiazolo[5,4-b]pyridin-3(2H)-one [Compound 15]”, the “% Inhibition of HIV-1 Infectivity at 3 μM relative to ΔNef” value in the assay with HIV-1 NL4-3 (3 μM, TZM-bl reporter cells infected with HIV-1 NL4-3) was found to be 81%. In addition, the dissociation constant (Kd) on HIV-1 Nef NL4-3 (SPR, Reichert 4-Channel instrument, N/I = No Interaction up to 1 μM, read-out: HIV-1 Nef-NL43, KD) was determined as 140 nM; on HIV-1 Nef-SF2 (Reichert 4-Channel instrument, N/I = No Interaction up to 1 μM, read-out: HIV-1 Nef-SF2, KD) it was 390 nM; on SIV Nef-mac239 (SPR, Reichert 4-Channel instrument, N/I = No Interaction up to 1 μM, read-out: SIV Nef-mac239, KD) it was 1280 nM.

Regarding `O=C(c1cc(-n2sc3ncccc3c2=O)ccc1F)N1CCOCC1` [Compound 1, 2-(4-fluoro-3-(morpholine-4-carbonyl)phenyl)isothiazolo[5,4-b]pyridin-3(2H)-one], the inhibition at 3 µM in the assay on HIV-1 NL4-3 stood at 84%. For the same molecule, the dissociation constant Kd at HIV-1 Nef-SF2 (setting [1]) was 1030 nM.

Take `Cc1ccc2c(=O)n(-c3ccc(F)c(C(=O)N4CCOCC4)c3)sc2n1` [Compound 2, 2-(4-fluoro-3-(morpholine-4-carbonyl)phenyl)-6-methylisothiazolo[5,4-b]pyridin-3(2H)-one]: the inhibition at 3 µM with HIV-1 NL4-3 worked out at 52%. Further, the equilibrium dissociation constant (Kd) at HIV-1 Nef-SF2 (setting [1]) came out at 500 nM.

Consider `Cc1ccc2c(=O)n(-c3ccc(Cl)c(C(=O)N4CCOCC4)c3)sc2n1` [Compound 3, 2-(4-chloro-3-(morpholine-4-carbonyl)phenyl)-6-methylisothiazolo[5,4-b]pyridin-3(2H)-one], for which, in the assay on HIV-1 NL4-3, the inhibition at 3 µM is 23%. Further, the dissociation constant Kd at HIV-1 Nef-SF2 (setting [1]) was determined as 870 nM.

With `Cc1ccc2c(=O)n(-c3ccc(C)c(S(=O)(=O)N4CCCC4)c3)sc2n1` [Compound 4, 6-methyl-2-(4-methyl-3-(pyrrolidin-1-ylsulfonyl)phenyl)isothiazolo[5,4-b]pyridin-3(2H)-one], in the assay with HIV-1 NL4-3, the inhibition at 3 µM is 32%. Moreover, the dissociation constant (Kd) on HIV-1 Nef-SF2 (setting [1]) amounted to 260 nM.

With `O=C(c1cc(-n2sc3ncccc3c2=O)ccc1Cl)N1CCOCC1` [Compound 5, 2-(4-chloro-3-(morpholine-4-carbonyl)phenyl)isothiazolo[5,4-b]pyridin-3(2H)-one], in the assay on HIV-1 NL4-3, the inhibition at 3 µM came out at 99%. Moreover, the Kd at HIV-1 Nef NL4-3 is 7330 nM; at HIV-1 Nef-SF2 (setting [1]), 162 nM; at HIV-1 Nef-SF2 (setting [2]) it was 2240 nM; on SIV Nef-mac239, 1510 nM.

Consider `Cc1ccc(-n2sc3ncccc3c2=O)cc1S(=O)(=O)N1CCCC1` [Compound 6, 2-(4-methyl-3-(pyrrolidin-1-ylsulfonyl)phenyl)isothiazolo[5,4-b]pyridin-3(2H)-one], for which, in the assay with HIV-1 NL4-3, the inhibition at 3 µM turned out to be 28%. Besides, the equilibrium dissociation constant (Kd) at HIV-1 Nef NL4-3 stood at 8660 nM; on HIV-1 Nef-SF2 (setting [2]), 2400 nM; on SIV Nef-mac239, 1600 nM.

In the case of `O=C(Nc1ccc(Cl)cc1)c1cc(-n2sc3ncccc3c2=O)ccc1Cl` [Compound 7, 2-chloro-N-(4-chlorophenyl)-5-(3-oxoisothiazolo[5,4-b]pyridin-2(3H)-yl)benzamide], the inhibition at 3 µM in the assay with HIV-1 NL4-3 is 58%. Also, the Kd turned out to be 190 nM on HIV-1 Nef NL4-3, 120 nM on HIV-1 Nef-SF2 (setting [1]) and 280 nM at SIV Nef-mac239. Also, on HIV-1 Nef NL4-3 (setting [3]), the “HIV-1 Nef-NL43, KD” value is “N/I”. Also, the “HIV-1 Nef-SF2, KD” value at HIV-1 Nef-SF2 (setting [4]) is reported as “N/I”. The “SIV Nef-mac239, KD” value on SIV Nef-mac239 (setting [3]) was “N/I”.

On to `O=C(c1cc(-n2sc3nc(C(F)(F)F)ccc3c2=O)ccc1Cl)N1CCOCC1` [Compound 8, 2-(4-chloro-3-(morpholine-4-carbonyl)phenyl)-6-(trifluoromethyl)isothiazolo[5,4-b]pyridin-3(2H)-one], for which, in the assay with HIV-1 NL4-3, the inhibition at 3 µM came to 71%. In addition, the Kd at HIV-1 Nef NL4-3 stood at 310 nM; on HIV-1 Nef-SF2 (setting [1]), 110 nM; on HIV-1 Nef-SF2 (setting [2]), 2340 nM; on SIV Nef-mac239, 780 nM. Besides, the “HIV-1 Nef-NL43, KD” value on HIV-1 Nef NL4-3 (setting [3]) is listed as “N/I”. Also, the “SIV Nef-mac239, KD” value on SIV Nef-mac239 (setting [3]) is “N/I”.

Take `O=C(c1ccc(-n2sc3ncccc3c2=O)cc1)N1CCCC1` [Compound 9, 2-(4-(pyrrolidine-1-carbonyl)phenyl)isothiazolo[5,4-b]pyridin-3(2H)-one]: in the assay on HIV-1 NL4-3, the inhibition at 3 µM came out at 38%. In addition, the equilibrium dissociation constant (Kd) on HIV-1 Nef NL4-3 stood at 40 nM.

For the molecule `O=C(c1cccc(-n2sc3ncccc3c2=O)c1)N1CCOCC1` [Compound 10, 2-(3-(morpholine-4-carbonyl)phenyl)isothiazolo[5,4-b]pyridin-3(2H)-one], the inhibition at 3 µM in the assay with HIV-1 NL4-3 was determined as 88%. At HIV-1 Nef NL4-3, the dissociation constant Kd is 250 nM.

Consider `CC1(C)CN(C(=O)c2cc(-n3sc4ncccc4c3=O)ccc2Cl)CCO1` [Compound 11, 2-(4-chloro-3-(2,2-dimethylmorpholine-4-carbonyl)phenyl)isothiazolo[5,4-b]pyridin-3(2H)-one], for which the inhibition at 3 µM in the assay with HIV-1 NL4-3 came to 89%. Besides, the Kd turned out to be 210 nM at HIV-1 Nef NL4-3, 220 nM on HIV-1 Nef-SF2 (setting [2]) and 1690 nM at SIV Nef-mac239.

For `O=C(c1cc(-n2sc3ncccc3c2=O)ccc1Cl)N1CCCC1` [Compound 12, 2-(4-chloro-3-(pyrrolidine-1-carbonyl)phenyl)isothiazolo[5,4-b]pyridin-3(2H)-one], in the assay on HIV-1 NL4-3, the inhibition at 3 µM came to 100%. In addition, the Kd on HIV-1 Nef NL4-3 amounted to 960 nM; at HIV-1 Nef-SF2 (setting [2]), 1710 nM; at SIV Nef-mac239, 3660 nM.

Consider `CC1CN(C(=O)c2cc(-n3sc4ncccc4c3=O)ccc2Cl)CC(C)O1` (stereo not drawn) [Compound 13, 2-(4-chloro-3-(2,6-dimethylmorpholine-4-carbonyl)phenyl)isothiazolo[5,4-b]pyridin-3(2H)-one], for which the inhibition at 3 µM with HIV-1 NL4-3 turned out to be 100%. Besides, the Kd on HIV-1 Nef NL4-3 was found to be 590 nM; at HIV-1 Nef-SF2 (setting [2]) it was 380 nM; at SIV Nef-mac239 it was 1410 nM.

For `O=C(c1cc(-n2sc3ncccc3c2=O)ccc1Cl)N1CCCCC1` [Compound 14, 2-(4-chloro-3-(piperidine-1-carbonyl)phenyl)isothiazolo[5,4-b]pyridin-3(2H)-one], in the assay with HIV-1 NL4-3, the inhibition at 3 µM stood at 82%. The Kd at HIV-1 Nef NL4-3 was 1760 nM; on HIV-1 Nef-SF2 (setting [2]), 1400 nM; at SIV Nef-mac239 it was 3110 nM.

`O=C(c1cc(-n2sc3ncccc3c2=O)ccc1Cl)N1CCC(F)(F)CC1` [Compound 16]: the inhibition at 3 µM with HIV-1 NL4-3 turned out to be 60%. In addition, the dissociation constant (Kd) on HIV-1 Nef NL4-3 came to 56200 nM; at HIV-1 Nef-SF2 (setting [2]), 9390 nM; on SIV Nef-mac239, 21100 nM.

For `O=C(c1cc(N2Cc3ncccc3C2=O)ccc1Cl)N1CCOCC1` [Compound 17, 6-(4-chloro-3-(morpholine-4-carbonyl)phenyl)-6,7-dihydro-5H-pyrrolo[3,4-b]pyridin-5-one], the inhibition at 3 µM in the assay with HIV-1 NL4-3 stood at 16%. In addition, the “HIV-1 Nef-NL43, KD” value on HIV-1 Nef NL4-3 (setting [3]) is reported as “N/I”. In addition, the “HIV-1 Nef-SF2, KD” value on HIV-1 Nef-SF2 (setting [4]) is “N/I”. Besides, the “SIV Nef-mac239, KD” value at SIV Nef-mac239 (setting [3]) is reported as “N/I”.
